Results as given in patent publication US11976098B2, “Cooked millet prolamin peptide for inhibiting alpha-amylase and alpha-glucosidase” (China Agricultural University, priority 2022, dated 2024).

Each substance was assayed on α-glucosidase (assay: In vitro α-glucosidase inhibitory activity (PNPG, 405 nm)). Conditions: sample 0.5%, 37° C., pH 6.8.
Format: biochemical
Experimental: The method for determining α-glucosidase activity is as follows: First, the solution of substrate 4-Nitrophenyl […] (PNPG) with a concentration of 1.505 mg/mL (5 mmol/L of PNPG dissolved in 0.1 mol/L phosphate buffer with a pH of 6.8) was prepared, a Na2CO3 solution with a concentration of 0.2 mol/L was prepared, and α-glucosidase solution (0.8 U/ml of α-glucosidase dissolved in 0.1 mol/L phosphate buffer with a pH of 6.8) was prepared. After the solutions were prepared, the following two groups were set for determination: [table] After preparing according to the above table, the resulting solution was shaken in a water bath at 37° C. for 10 min, followed by adding 100 μL of enzyme solution and continuing to shake in the water bath at 37° C. for 10 min. Finally, 50 μL of Na2CO3 solution was added, and the absorbance was measured at 405 nm. The formula for calculating the α-glucosidase inhibition rate is as follows: [formula]
With “QQLRPF (The sequence is synthetized) [SEQ ID NO: 1, small peptide screened from cooked millet prolamin]” the α-glucosidase inhibition rate was 32.67%.
For “FALQGAAFLGSA (The sequence is synthetized) [SEQ ID NO: 3, small peptide screened from cooked millet prolamin]”, the α-glucosidase inhibition rate was 17.67%.
“AGAGPQGRP (The sequence is synthetized) [SEQ ID NO: 2, small peptide screened from cooked millet prolamin]” was tested, and the α-glucosidase inhibition rate was 31.57%.
Substance “KTGSGAEGMHGGK (The sequence is synthetized) [SEQ ID NO: 5, small peptide screened from cooked millet prolamin]” has a α-glucosidase inhibition rate of 15.64%.
“QQQQLLR (The sequence is synthetized) [SEQ ID NO: 4, small peptide screened from cooked millet prolamin]” gave a α-glucosidase inhibition rate of 15.94%.
“KAHAALGAK (The sequence is synthetized) [SEQ ID NO: 6, small peptide screened from cooked millet prolamin]” gave a α-glucosidase inhibition rate of 13.77%.
